Data on 1 molecule can be found in patent publication US7419780B2, “Methods and assays for screening protein targets” (The Trustees of Columbia University in the City of New York, priority 2000, dated 2008).

Common to all, as to format: cell-based, S. cerevisiae
Holding throughout (conditions): 1 uM small molecule, difference to activity without small molecule, average of two trials

Experiment [1] deals with T1, LexA (GSG)2eDHFR / B42 (GSG)rGR2 (UniProt P06536+P0ABQ4, C656G/F620S).
T1 construct: rat Glucocorticoid Receptor (aa 524-795) with point mutations; expressed in transfected cells; host or cells: S. cerevisiae FY250
T1 sequence (P0ABQ4 1-159): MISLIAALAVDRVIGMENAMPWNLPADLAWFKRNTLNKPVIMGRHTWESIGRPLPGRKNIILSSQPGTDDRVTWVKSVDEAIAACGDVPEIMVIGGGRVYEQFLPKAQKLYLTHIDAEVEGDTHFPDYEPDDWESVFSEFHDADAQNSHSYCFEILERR
T1 sequence (P06536 524-795 F620S/C656G limits assumed): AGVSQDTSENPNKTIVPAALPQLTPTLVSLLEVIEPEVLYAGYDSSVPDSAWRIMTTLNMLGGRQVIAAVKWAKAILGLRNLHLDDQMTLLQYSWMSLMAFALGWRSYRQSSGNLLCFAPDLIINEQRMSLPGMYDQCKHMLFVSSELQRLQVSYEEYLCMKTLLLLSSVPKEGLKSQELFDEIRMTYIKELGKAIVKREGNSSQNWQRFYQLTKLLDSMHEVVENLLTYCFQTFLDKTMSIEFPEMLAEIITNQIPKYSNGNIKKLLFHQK
As to the kind of experiment: β-galactosidase activity assay, strain V501Y. From the text:
(§1) Table III explains the components of each strain. Each strain was constructed from the parent yeast strain FY250 and also contains the pMW106 plasmid, which has the LacZ reporter gene that is turned on only in when the LexA DNA binding domain and the B42 activation are brought in tot he vicinity of each other. We use several different strains because we use DHFR from two different species, mDHFR is from murine, while eDHFR is from E. coli. We are asl oable to switch the small moleculebinding domains. For example, the strain containing LexA-eDHFR with B42-rGH2 is a different strain and behaves differently from the strain containing LexA-rGR2 with B42-eDHFR. We also put in short 6 amino acid linkers between the two domains of our protein chimeras and thus these are different strain as well.
(§2) The results in Table IV are averages of two separate trials. Each strain was examined with small molecules and without small molecules. The absolute activity is given as the β-galactisidase activity […]. The average β-galactosidse activity for a strain without small molecule (i.e. the negative control) was about 100 β-galactosidase units.

Experiment [2] deals with T2, LexA mDHFR / B42 (GSG)rGR2 (UniProt P00375+P06536, C656G/F620S).
T2 construct: rat Glucocorticoid Receptor (aa 524-795) with point mutations; expressed in transfected cells; host or cells: S. cerevisiae FY250
T2 sequence (P00375 1-187): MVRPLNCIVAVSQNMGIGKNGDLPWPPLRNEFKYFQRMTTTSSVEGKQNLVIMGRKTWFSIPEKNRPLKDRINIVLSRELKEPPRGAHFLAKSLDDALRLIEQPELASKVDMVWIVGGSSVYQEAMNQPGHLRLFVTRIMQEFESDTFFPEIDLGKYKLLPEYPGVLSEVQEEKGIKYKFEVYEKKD
T2 sequence (P06536 524-795 F620S/C656G limits assumed): T1 sequence (P06536 524-795 F620S/C656G limits assumed)
As to the kind of experiment: β-galactosidase activity assay, strain V497Y.
Source text: as §1, §2

Experiment [3] deals with T3, LexA eDHFR / B42 gly6rGR2 (UniProt P06536+P0ABQ4, C656G/F620S).
T3 construct: rat Glucocorticoid Receptor (aa 524-795) with point mutations; expressed in transfected cells; host or cells: S. cerevisiae FY250
T3 sequence (P0ABQ4 1-159): T1 sequence (P0ABQ4 1-159)
T3 sequence (P06536 524-795 F620S/C656G limits assumed): T1 sequence (P06536 524-795 F620S/C656G limits assumed)
As to the kind of experiment: β-galactosidase activity assay, strain V375Y.
Source text: as §1, §2

Experiment [4] has as its target T4, LexA (GSG)2mDHFR / B42 (GSG)rGR2 (UniProt P00375+P06536, C656G/F620S).
T4 construct: rat Glucocorticoid Receptor (aa 524-795) with point mutations; expressed in transfected cells; host or cells: S. cerevisiae FY250
T4 sequence (P00375 1-187): T2 sequence (P00375 1-187)
T4 sequence (P06536 524-795 F620S/C656G limits assumed): T1 sequence (P06536 524-795 F620S/C656G limits assumed)
As to the kind of experiment: β-galactosidase activity assay, strain V504Y.
Source text: as §1, §2

Experiment [5] addresses T5, LexA (GSG)2rGR2 / B42 (GSG)2eDHFR (UniProt P06536+P0ABQ4, C656G/F620S).
T5 construct: rat Glucocorticoid Receptor (aa 524-795) with point mutations; expressed in transfected cells; host or cells: S. cerevisiae FY250
T5 sequence (P06536 524-795 F620S/C656G limits assumed): T1 sequence (P06536 524-795 F620S/C656G limits assumed)
T5 sequence (P0ABQ4 1-159): T1 sequence (P0ABQ4 1-159)
The experiment can be described thus: β-galactosidase activity assay, strain V510Y.
Source text: as §1, §2

Experiment [6] concerns the target T6, LexA (GSG)2rGR2 / B42 mDHFR (UniProt P00375+P06536, C656G/F620S).
T6 construct: expressed in transfected cells; host or cells: S. cerevisiae FY250 with pMW106 lacZ reporter
T6 sequence (P06536 524-795 F620S/C656G limits assumed): T1 sequence (P06536 524-795 F620S/C656G limits assumed)
T6 sequence (P00375 1-187): T2 sequence (P00375 1-187)
The experiment can be described thus: β-galactosidase activity assay, strain V508Y.
Source text: as §1, §2

For experiment [7], the target named is T7, LexA (GSG)2mDHFR / B42 gly6rGR2 (UniProt P00375+P06536, C656G/F620S).
T7 construct: expressed in transfected cells; host or cells: S. cerevisiae FY250 with pMW106 lacZ reporter
T7 sequence (P00375 1-187): T2 sequence (P00375 1-187)
T7 sequence (P06536 524-795 F620S/C656G limits assumed): T1 sequence (P06536 524-795 F620S/C656G limits assumed)
The experiment can be described thus: β-galactosidase activity assay, strain V503Y.
Source text: as §1, §2

Another experiment addresses T8, LexA eDHFR / B42 rGR2 (UniProt P06536+P0ABQ4, C656G/F620S).
T8 construct: rat Glucocorticoid Receptor (aa 524-795) with point mutations; expressed in transfected cells; host or cells: S. cerevisiae FY250
T8 sequence (P0ABQ4 1-159): T1 sequence (P0ABQ4 1-159)
T8 sequence (P06536 524-795 F620S/C656G limits assumed): T1 sequence (P06536 524-795 F620S/C656G limits assumed)
The experiment can be described thus: β-galactosidase activity assay, strain V493Y.
Source text: as §1, §2

In experiment [8] the target is T9, LexA eDHFR / B42 (GSG)rGR2 (UniProt P06536+P0ABQ4, C656G/F620S).
T9 construct: rat Glucocorticoid Receptor (aa 524-795) with point mutations; expressed in transfected cells; host or cells: S. cerevisiae FY250
T9 sequence (P0ABQ4 1-159): T1 sequence (P0ABQ4 1-159)
T9 sequence (P06536 524-795 F620S/C656G limits assumed): T1 sequence (P06536 524-795 F620S/C656G limits assumed)
As to the kind of experiment: β-galactosidase activity assay, strain V494Y.
Source text: as §1, §2

For experiment [9], the target named is T10, LexA rGR2 / B42 (GSG)2eDHFR (UniProt P06536+P0ABQ4, C656G/F620S).
T10 construct: expressed in transfected cells; host or cells: S. cerevisiae FY250 with pMW106 lacZ reporter
T10 sequence (P06536 524-795 F620S/C656G limits assumed): T1 sequence (P06536 524-795 F620S/C656G limits assumed)
T10 sequence (P0ABQ4 1-159): T1 sequence (P0ABQ4 1-159)
The experiment can be described thus: β-galactosidase activity assay, strain V509Y.
Source text: as §1, §2

Take `C[C@@H]1C[C@H]2C3CCC4=CC(=O)C=C[C@]4(C)[C@@]3(F)[C@@H](O)C[C@]2(C)[C@@]1(O)C(=O)NCCSCc1cccc(CSCC[C@H](NC(=O)c2ccc(N(C)Cc3cnc4nc(N)nc(N)c4n3)cc2)C(=O)O)c1` (stereo partly shown) [DM1]: the B-gal activity is 4662 β-galactosidase units in experiment [1]; −8 β-galactosidase units in experiment [2]; 4978 β-galactosidase units in experiment [3]; 12 β-galactosidase units in [4]; 601 β-galactosidase units in experiment [5]; 0 β-galactosidase units in [6]. Moreover, the B-gal activity in experiment [7] was −5 β-galactosidase units; at LexA eDHFR / B42 rGR2, 5753 β-galactosidase units; in experiment [8] it was 9976 β-galactosidase units; in [9], 307 β-galactosidase units.
